The values that follow come from BindingDB's records for patent US20240336562 (Hangzhou Innogate Pharma, 2024).

For this experiment, the target named is NACHT, LRR and PYD domains-containing protein 3 (Homo sapiens, UniProt Q96P20). Put plainly: Inhibitory Activity of NLRP3. How it is done: ELISA plate, and incubated at 4° C. overnight. Discard the liquid in the ELISA plate and wash it 4 times with eluent. Add 300 μL/well reagent diluent and incubate the ELISA plate at room temperature for 1.5 hours. Wash the plate with eluent for four times. Then 100 μL/well samples were added to ELISA plate coated with IL1β and incubated at room temperature for 2 h. Wash the plate with eluent for four times. Each well was added with 100 μL detection antibody and incubated at 37° C. for 2 h. Wash the plate with eluent for four times. Add 100 μL of HRP labeled secondary antibody to each well. Incubate at 37° C. for 1 hour. Wash the plate with eluent for four times. Add 100 μL of A+B substrate per well. Incubate at 37° C. for 30 minutes. Add 100 μL STOP solution per well. Gently shake the plate for a few seconds. Read the absorption value at 450 nm on the EnVision multifunction reader and calculate the Inhibitory rate according to the following formula: Inhibition %=(Ave_H-Sample)/(Ave_H-Ave_L). Among them, Ave_H represents the average value of DMSO well, Sample represents the average value of compound well, and Ave_L represents the average value of 10 μM positive control well. The log value of concentration was taken as the X-axis and the percentage inhibitory rate as the Y-axis. […]
Sequence of NACHT, LRR and PYD domains-containing protein 3 (Q96P20 whole entry, the tested form may be a part): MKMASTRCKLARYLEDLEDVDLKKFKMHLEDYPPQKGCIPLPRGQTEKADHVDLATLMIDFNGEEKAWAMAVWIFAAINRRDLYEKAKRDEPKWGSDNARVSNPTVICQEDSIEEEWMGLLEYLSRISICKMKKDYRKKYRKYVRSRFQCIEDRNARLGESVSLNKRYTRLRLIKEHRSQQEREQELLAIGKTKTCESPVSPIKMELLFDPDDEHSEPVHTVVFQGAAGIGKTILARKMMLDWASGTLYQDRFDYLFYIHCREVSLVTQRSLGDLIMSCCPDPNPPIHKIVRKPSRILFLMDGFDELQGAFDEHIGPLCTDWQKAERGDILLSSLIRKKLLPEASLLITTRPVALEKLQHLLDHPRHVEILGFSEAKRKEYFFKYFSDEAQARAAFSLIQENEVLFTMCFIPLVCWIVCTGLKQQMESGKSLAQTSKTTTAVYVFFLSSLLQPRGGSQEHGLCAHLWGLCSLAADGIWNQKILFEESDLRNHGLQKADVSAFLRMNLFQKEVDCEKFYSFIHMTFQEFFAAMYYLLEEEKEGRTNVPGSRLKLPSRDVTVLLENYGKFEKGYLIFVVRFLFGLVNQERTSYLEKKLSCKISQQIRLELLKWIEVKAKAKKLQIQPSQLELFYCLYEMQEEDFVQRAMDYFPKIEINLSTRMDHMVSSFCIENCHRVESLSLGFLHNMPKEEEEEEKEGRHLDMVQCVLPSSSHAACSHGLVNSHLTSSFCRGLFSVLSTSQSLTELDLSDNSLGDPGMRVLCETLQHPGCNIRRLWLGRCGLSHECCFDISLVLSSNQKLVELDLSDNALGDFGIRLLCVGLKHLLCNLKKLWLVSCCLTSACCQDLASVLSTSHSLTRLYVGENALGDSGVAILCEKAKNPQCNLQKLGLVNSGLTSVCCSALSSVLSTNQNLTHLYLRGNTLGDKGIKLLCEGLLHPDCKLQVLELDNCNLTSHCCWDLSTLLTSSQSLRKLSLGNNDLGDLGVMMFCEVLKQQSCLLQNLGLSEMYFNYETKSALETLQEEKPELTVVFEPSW

As for `COc1cc(-c2c(C)cc3c(c2NC(=O)NS(=O)(=O)c2ccn(C4CC(=C(F)F)C4)n2)CCC3)ccn1` (stereo unspecified) [US20240336562, Compound 22], the IC50 was under 25 nM.

For orientation: IC50 means the concentration that gives 50% inhibition. A lower IC50 goes with greater potency.
